# Laboratory results: patent US20060275503A1, “Combination treatment with strontium for the prophylaxis and/or treatment of cartilage and/or bone conditions” (Nordic Bone A/S, priority 2003, published 2006)
# How the values were obtained:
# [1] = Experimental: The solubility of the organic carboxylic acid strontium salts, were measured in water. The solubility of these salts was also measured as a function of temperature. This was performed by incubating the saturated solutions of the salts in temperature controlled incubators.
# The buffered solutions were immersed into a bath of water temperature controlled at either room temperature (22-24° C.), at 30° C. or at 40° C. […] In order to eliminate any reminiscent strontium chloride influence on the determination of solubility, all the precipitate was collected at the bottom of the test tubes and the solutions above the precipitate were carefully removed and substituted by fresh solutions. […] From these solutions, the dissolved proportions of the strontium salt were collected in volumes of 1 mL at the specified temperature. The solutions were diluted to 50 mL before analysis by Flame Atomic Absorption Spectrometry (F-AAS).
# Two methods were used for quantification of strontium in solutions: Flame Atomic Absorption Spectrometry (F-AAS), and the more sensitive inductively-coupled-plasma-mass spectrometry (ICP-MS).
# The solubilities were investigated as described above, and strontium content in the saturated solutions determined as described here below.
# Some of the very soluble strontium salts were further diluted before analysis by F-AAS. The measurements were performed by using a Perkin-Elmer 2100 equipped with a hydrogen lamp for correction of the background signal. Strontium was measured at a slit with of 0.2 nm, the wavelength was 460.8 nm operated at an energy of 58 and a current of 8 mA.
# This analysis was performed using a Perkin Elmer Elan 5000 system equipped with a cross-flow nebulizer. The power was set at 1000 W and the Argon-gas flow was 12 L/min and 0.8 L/min of the torch and plasma gas, respectively.
# [2] = values quoted in scientific literature or reference material such as the Beilstein compendium; cited from earlier work
# [3] = target: T1, calcium-sensing receptor (CaR) (Homo sapiens, UniProt P41180); settings: cited from earlier work
# T1 sequence (P41180 20-1078): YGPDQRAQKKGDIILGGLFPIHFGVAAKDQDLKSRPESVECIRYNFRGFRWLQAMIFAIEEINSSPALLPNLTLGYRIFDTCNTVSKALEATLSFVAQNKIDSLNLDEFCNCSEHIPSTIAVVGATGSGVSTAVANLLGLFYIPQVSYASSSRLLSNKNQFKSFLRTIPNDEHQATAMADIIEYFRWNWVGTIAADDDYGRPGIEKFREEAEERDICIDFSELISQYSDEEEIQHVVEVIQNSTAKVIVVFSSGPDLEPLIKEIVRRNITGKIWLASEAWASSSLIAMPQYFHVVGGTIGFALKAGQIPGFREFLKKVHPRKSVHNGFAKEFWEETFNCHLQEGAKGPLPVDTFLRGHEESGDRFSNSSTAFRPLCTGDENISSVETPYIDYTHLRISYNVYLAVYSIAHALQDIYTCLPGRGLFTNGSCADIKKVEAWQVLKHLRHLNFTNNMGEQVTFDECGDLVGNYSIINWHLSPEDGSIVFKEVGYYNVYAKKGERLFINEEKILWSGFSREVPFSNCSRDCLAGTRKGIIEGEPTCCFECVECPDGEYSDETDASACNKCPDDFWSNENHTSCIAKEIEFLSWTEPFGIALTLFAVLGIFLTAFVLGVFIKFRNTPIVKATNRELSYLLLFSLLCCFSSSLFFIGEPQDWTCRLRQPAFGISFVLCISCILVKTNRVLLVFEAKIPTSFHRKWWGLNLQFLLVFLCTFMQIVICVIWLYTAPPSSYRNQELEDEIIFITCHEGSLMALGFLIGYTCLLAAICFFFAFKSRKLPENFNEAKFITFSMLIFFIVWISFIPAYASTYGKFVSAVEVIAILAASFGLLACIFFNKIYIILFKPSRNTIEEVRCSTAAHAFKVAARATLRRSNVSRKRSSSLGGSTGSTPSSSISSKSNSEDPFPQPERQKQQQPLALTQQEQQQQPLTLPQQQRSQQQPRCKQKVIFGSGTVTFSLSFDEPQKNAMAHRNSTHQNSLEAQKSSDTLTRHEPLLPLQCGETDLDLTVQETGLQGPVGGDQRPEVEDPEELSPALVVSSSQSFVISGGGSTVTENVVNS
smiles,measurement,setting,value
"O=C([O-])/C=C\C(=O)[O-].[Sr+2] [Maleate, strontium maleate]",solubility in ammonium carbonate buffered solution of pH 7.5 compared with pure water,[1]; pH 7.5,decreased solubility
"N#Cc1c(N(CC(=O)[O-])CC(=O)[O-])sc(C(=O)[O-])c1CC(=O)[O-].[Sr+2].[Sr+2] [Ranelate, distrontium salt of 2-[N,N-di(carboxymethyl)amino]-3-cyano-4-carboxymethylthiophene-5-carboxylic acid]",SOLUBILITY AT 40° C. (mg/L) In water,[1],1450 mg/L
same,SOLUBILITY AT ROOM TEMPERATURE (22-24° C. mg/L) In water,[1],760 mg/L
same,SOLUBILITY AT 40° C. (mg/L) pH 7.5,[1]; pH 7.5,1970 mg/L
same,SOLUBILITY AT ROOM TEMPERATURE (22-24° C. mg/L) pH 7.5,[1]; pH 7.5,890 mg/L
"[Cl-].[Cl-].[Sr+2] [SrCl2, strontium chloride]","Solubility, Expected value 18° C.",[2],538 mg/mL
same,"Solubility, Measured g/L","[1]; commercially available strontium salts, in water at room temperature (22-24)",240 g/L
[Sr+2] [strontium],activity at the calcium-sensing receptor (CaR),[3],full agonist
